Experimental data reported in patent publication US20200165257A1, “INHIBITORS OF PHOSPHOINOSITIDE 3-KINASE AND HISTONE DEACETYLASE FOR TREATMENT OF CANCER” (THE UNITED STATES OF AMERICA, AS REPRESENTED BY THE …, priority 2017, published 2020).
pIC50: −log10 of the molar value.

What was measured:
PI3Kδ = PI3Kδ (Homo sapiens, UniProt O00329); test: PI3Kδ kinase assay (HTRF); format: biochemical; details: symbols ++ / +; read-out: PI3Kδ Inhibition Activity (IC50 class)
Protocol: The PIP3 product is detected by displacement of biotin-PIP3 from an energy transfer complex consisting of Europium labeled anti-GST monoclonal antibody, a GST-tagged pleckstrin homology (PH) domain, biotinylated PIP3 and Streptavidin-Allophycocyanin (APC). […] The PIP3 product formed by PI 3-Kinase(h) activity displaces biotin-PIP3 from the complex resulting in a loss of energy transfer, and thus, a decrease in signal.
First, the kinase reaction with PIP2 substrate is carried out in the presence of ATP, and the reaction is quenched with stop Solution, and then, finally detect by adding Detection Mixture followed by incubation.
HEPES 50 mM (pH7.0), NaN3 0.02%, BSA 0.01%, Orthovanadate 0.1 mM, 1% DMSO.
Detection buffer: HEPES 10 mM (pH7.0), BSA 0.02%, KF 0.16 M, EDTA 4 mM.
10 μM PIP2 substrate (PI(4,5)P2)
10 μM ATP under standard conditions
1. Prepare substrate in freshly prepared Reaction Buffer.
2. Deliver kinase into the substrate solution and gently mix.
3. Deliver compounds in 100% DMSO into the kinase reaction mixture by Acoustic technology (Echo550; nanoliter range), incubate for 10 min at room temperature.
4. Deliver ATP into the reaction mixture to initiate the reaction.
5. Incubate for 30 min at 30° C.
6. Quench the reaction with Stop Solution.
7. Add Detection Mixture, and incubate for overnight.
The emission ratio is converted into μM PIP3 production based on PIP3 standard curves.
The nonlinear regression to obtain the standard curve and IC50 values are performed using Graphpad Prism software.

[1] = test system: Leukemia Cell Line HL-60(TB); format: cell-based; details: Homo sapiens; HL-60(TB); single dose, 10 uM compound concentration; read-out: inhibition of proliferation
Ovarian Cell Line IGROV1 = format: cell-based; details: Homo sapiens, IGROV-1; IGROV1; single dose, 10 uM compound concentration; read-out: inhibition of proliferation
[2] = test system: Ovarian Cell Line OVCAR-8; test: cells; format: cell-based; details: Homo sapiens; OVCAR-8; single dose, 10 uM compound concentration; read-out: inhibition of proliferation
[3] = test system: Breast Cancer Cell Line MDA-MB-468; test: cells; details: Homo sapiens, MDA-MB-468, read-out: inhibition of proliferation

Sequence of PI3Kδ (O00329 whole entry): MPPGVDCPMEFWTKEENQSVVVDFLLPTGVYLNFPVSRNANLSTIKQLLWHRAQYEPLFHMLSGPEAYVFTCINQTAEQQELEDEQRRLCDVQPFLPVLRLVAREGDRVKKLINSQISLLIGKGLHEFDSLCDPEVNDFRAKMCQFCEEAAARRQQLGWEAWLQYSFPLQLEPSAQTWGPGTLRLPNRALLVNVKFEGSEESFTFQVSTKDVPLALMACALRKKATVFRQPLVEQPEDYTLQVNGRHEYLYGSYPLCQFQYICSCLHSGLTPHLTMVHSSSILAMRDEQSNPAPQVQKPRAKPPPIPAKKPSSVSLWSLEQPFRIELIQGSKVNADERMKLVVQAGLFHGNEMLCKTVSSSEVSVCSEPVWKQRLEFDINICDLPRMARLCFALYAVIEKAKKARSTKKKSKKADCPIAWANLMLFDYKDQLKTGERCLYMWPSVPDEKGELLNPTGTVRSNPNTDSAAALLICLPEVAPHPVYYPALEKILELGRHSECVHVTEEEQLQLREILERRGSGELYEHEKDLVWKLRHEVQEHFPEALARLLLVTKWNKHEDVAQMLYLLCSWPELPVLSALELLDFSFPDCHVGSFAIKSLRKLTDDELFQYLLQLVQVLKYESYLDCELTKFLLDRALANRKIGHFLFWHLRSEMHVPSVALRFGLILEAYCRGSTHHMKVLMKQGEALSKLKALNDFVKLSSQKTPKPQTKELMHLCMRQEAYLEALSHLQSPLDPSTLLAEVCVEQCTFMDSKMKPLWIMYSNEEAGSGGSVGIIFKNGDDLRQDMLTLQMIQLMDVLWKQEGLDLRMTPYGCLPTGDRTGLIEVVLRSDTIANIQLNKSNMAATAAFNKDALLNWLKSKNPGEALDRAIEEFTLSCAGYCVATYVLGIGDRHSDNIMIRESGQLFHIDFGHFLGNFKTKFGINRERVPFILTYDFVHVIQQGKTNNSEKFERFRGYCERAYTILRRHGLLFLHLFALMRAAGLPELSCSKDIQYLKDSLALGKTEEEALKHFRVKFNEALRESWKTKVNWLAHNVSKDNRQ
Sequence of PI3Kδ (P27986 whole entry partner): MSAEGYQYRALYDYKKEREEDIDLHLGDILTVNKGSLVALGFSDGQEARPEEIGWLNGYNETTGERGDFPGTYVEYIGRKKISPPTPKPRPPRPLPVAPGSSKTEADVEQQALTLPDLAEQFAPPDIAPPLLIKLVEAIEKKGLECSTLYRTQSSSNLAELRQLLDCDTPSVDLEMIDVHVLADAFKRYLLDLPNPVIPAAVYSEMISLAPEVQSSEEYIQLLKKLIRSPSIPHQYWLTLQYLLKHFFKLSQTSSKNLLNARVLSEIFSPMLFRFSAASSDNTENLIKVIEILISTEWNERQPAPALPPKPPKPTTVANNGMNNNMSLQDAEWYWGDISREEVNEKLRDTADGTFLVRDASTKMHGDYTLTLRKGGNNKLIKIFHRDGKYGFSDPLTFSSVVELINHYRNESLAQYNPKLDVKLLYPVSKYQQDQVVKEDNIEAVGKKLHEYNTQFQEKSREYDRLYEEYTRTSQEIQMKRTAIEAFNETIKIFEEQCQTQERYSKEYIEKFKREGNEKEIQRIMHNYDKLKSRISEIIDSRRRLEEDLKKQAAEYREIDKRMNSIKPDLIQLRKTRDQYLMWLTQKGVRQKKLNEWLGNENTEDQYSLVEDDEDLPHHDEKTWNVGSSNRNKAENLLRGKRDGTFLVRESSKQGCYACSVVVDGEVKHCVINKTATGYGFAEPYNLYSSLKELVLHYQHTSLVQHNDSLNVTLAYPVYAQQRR

- pIC50 (PI3Kδ): > 7.00
Structure (SMILES): CC[C@H](Nc1nc(N)nc(C)c1C#N)c1nc2cccc(CN(C)c3ncc(C(=O)NO)cn3)c2c(=O)n1-c1ccccc1 [LII, (S)-2-(((2-(1-((2-amino-5-cyano-6-methylpyrimidin-4-yl)amino)propyl)-4-oxo-3-phenyl-3,4-dihydroquinazolin-5-yl)methyl)(methyl)amino)-N-hydroxypyrimidine-5-carboxamide]
- inhibition at 10 µM [1]: > 50%
- inhibition at 10 µM (Ovarian Cell Line IGROV1): > 50%
- inhibition at 10 µM [2]: > 50%
- inhibition at 10 µM [3]: > 50%
